Measurements: US12459919B2, “Polymorphic forms of (R)-4-(1-((3-(difluoromethyl)-1-methyl-1H-pyrazol-4-yl)sulfonyl)-1- fluoroethyl)-N-(isoxazol-3-yl)piperidine-1-carboxamide” (MyoKardia, Inc., priority 2019, dated 2025)

Assays:
[1] = DVS isotherm (hygroscopicity); assay type: physicochemical
[2] = Polymorph relative stability, interconversion slurring experiments; assay type: physicochemical
[3] = biological target: bovine cardiac myosin (Bos taurus, UniProt Q9BE39); assay: Myosin activation assay (PK/LDH-coupled ATPase, skinned myofibrils); assay type: biochemical; details: concentration at which total response is increased by twenty percent
Chain of bovine cardiac myosin (Q9BE39 whole entry): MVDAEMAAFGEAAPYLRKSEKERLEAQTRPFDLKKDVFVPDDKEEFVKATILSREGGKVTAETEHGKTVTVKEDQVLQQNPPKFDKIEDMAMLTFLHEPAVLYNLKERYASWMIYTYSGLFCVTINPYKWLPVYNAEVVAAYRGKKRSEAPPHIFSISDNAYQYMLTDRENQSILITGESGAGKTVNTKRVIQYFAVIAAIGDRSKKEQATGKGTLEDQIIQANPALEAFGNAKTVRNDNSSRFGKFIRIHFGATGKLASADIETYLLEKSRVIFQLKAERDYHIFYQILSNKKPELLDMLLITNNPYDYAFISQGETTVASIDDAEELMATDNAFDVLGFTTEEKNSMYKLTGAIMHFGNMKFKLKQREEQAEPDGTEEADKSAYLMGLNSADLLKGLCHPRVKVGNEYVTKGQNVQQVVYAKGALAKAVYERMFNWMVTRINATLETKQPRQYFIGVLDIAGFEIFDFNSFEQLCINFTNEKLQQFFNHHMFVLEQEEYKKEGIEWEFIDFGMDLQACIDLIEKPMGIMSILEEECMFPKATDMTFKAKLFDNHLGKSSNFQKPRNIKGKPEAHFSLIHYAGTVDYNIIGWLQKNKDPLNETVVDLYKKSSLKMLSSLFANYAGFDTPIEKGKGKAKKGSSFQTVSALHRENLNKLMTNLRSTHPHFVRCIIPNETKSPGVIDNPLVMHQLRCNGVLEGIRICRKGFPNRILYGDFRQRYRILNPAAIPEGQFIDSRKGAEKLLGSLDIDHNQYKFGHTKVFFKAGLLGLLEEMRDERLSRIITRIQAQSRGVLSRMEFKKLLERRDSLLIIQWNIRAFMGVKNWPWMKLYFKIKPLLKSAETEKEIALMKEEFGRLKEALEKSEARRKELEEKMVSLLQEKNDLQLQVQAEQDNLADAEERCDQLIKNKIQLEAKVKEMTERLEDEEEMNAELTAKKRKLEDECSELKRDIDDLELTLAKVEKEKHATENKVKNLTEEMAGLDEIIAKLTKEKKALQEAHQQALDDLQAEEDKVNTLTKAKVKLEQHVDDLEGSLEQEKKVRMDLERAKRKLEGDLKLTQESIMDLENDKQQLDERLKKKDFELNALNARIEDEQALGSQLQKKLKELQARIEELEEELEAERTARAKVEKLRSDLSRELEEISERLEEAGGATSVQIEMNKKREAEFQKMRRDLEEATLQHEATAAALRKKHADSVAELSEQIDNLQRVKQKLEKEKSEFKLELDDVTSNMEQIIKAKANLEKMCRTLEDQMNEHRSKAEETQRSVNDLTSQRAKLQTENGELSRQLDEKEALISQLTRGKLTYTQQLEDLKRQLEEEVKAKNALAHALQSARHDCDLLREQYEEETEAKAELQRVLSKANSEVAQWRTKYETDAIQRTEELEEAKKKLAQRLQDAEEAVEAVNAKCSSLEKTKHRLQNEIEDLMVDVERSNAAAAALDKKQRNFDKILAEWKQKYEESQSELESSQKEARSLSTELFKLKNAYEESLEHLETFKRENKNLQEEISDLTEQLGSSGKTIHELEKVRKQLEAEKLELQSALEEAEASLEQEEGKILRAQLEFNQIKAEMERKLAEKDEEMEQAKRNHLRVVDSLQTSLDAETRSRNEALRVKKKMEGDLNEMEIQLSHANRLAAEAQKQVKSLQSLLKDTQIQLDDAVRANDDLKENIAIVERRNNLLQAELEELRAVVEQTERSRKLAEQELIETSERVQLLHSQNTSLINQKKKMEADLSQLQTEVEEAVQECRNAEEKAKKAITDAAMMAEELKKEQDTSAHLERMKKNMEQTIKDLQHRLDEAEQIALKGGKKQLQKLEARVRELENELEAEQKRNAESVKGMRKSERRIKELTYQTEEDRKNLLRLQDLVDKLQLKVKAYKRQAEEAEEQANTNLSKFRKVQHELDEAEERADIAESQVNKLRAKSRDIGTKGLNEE
Chain of bovine cardiac myosin (P85100 whole entry partner): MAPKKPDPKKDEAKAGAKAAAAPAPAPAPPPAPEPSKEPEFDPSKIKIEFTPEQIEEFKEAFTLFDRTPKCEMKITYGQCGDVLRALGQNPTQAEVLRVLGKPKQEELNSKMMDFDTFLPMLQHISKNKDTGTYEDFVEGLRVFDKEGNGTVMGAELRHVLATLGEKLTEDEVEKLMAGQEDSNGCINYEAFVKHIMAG
Chain of bovine cardiac myosin (Q3SZE5 whole entry partner): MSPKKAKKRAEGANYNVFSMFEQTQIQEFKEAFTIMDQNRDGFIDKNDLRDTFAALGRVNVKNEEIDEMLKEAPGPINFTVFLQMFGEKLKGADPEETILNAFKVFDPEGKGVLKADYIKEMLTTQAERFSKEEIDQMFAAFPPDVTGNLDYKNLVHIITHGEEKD
Procedure: Small molecule agents were assessed for their ability to activate the enzymatic activity of bovine cardiac myosin using a biochemical assay that couples the release of ADP (adenosine diphosphate) from cardiac myosin to an enzymatic coupling system consisting of pyruvate kinase and lactate dehydrogenase (PK/LDH) and monitoring the absorbance decrease of NADH (at 340 nm) as a function of time. PK converts ADP to ATP (adenosine triphosphate) by converting PEP (phosphoenolpyruvate) to pyruvate. Pyruvate is then converted to lactate by LDH by converting NADH (nicotinamide adenine dinucleotide) to NAD (oxidized nicotinamide adenine dinucleotide). […] Prior to testing small molecule agents, the bovine myofibrils were assessed for their calcium responsiveness and the calcium concentration that achieves either a 50% (pCa50 or pCa=˜6) or <5% (pCa=10) activation of the myofibril system was chosen as the final condition for assessing the activation activity of the small molecule agents. […]
A dilution series of compound was created in DMSO such that the final desired concentration of compound would be achieved in a volume of […] with a fixed DMSO concentration of 3.3% (v/v). […] The reaction progress was followed in a PerkinElmer Envision plate reader at ambient temperature using clear bottom plates. The plate reader was configured to read absorbance at 340 nm in kinetics mode for 15 minutes. […]

[4] = test system: adult rat ventricular myocytes; assay: Cardiomyocyte contractility assay (fractional shortening, IonOptix); assay type: cell-based; details: 5 minutes perfusion, 1 Hz pacing
Procedure: Contractility of adult rat ventricular myocytes is determined by edge detection with an IonOptix contractility system. Aliquots of myocytes in Tyrode buffer (137 mM NaCl, 3.7 mM KCl, 0.5 mM MgCl2, 1.5 mM CaCl2, 4 mM HEPES, 11 mM glucose) are placed in a perfusion chamber (Series 20 RC-27NE; Warner Instruments), allowed to adhere to the coverslip, and then perfused with 37° C. Tyrode buffer. Myocytes are filed stimulated at 1 Hz and 10V. Only myocytes with clear striations, quiescent prior to pacing, with a cell length of 120-180 microns, a basal fractional shortening equal to 3-8% of the cell length, and a contraction velocity greater than 100 microns per second are used for contractility experiments. To determine the response to compounds, myocytes are first perfused for 60 seconds with Tyrodes buffer followed by 5 minutes of compound and a 140 second washout with Tyrodes buffer. Data is continuously recorded using IonOptix software. Contractility data is analyzed using Ionwizard software (IonOptix). For each cell, 10-20 contractility transients were averaged and compared under basal (no compound) and compound-treated conditions. Compound activity is measured by effects on fractional shortening (FS), where fractional shortening is the ratio of the peak length of the cell at contraction divided by the basal cell length normalized to 100% for an untreated cell.

SMILES | Hygroscopic character (DVS isotherm) [1] | Relative stability of polymorphs ([2]; 1:1 (w/w) forms A+εD and B slurried 18 hours in acetonitrile and water mixture, range of RT to 70° C.) | Polymorph stability ranking ([2]; compared to Form A, Form C, and Form D) | Myosin Activation (AC20) [3] | Activity at 3.0 uM (fractional shortening activation over basal) ([4]; 3.0 uM compound) | Activity at 10 uM (fractional shortening activation over basal) ([4]; 10 uM compound)
Cn1cc(S(=O)(=O)[C@@](C)(F)C2CCN(C(=O)Nc3ccon3)CC2)c(C(F)F)n1 [Form B, (R)-4-(1-((3-(difluoromethyl)-1-methyl-1H-pyrazol-4-yl)sulfonyl)-1-fluoroethyl)-N-(isoxazol-3-yl)piperidine-1-carboxamide] | nonhygroscopic | more stable compared to Form A | most stable polymorph |  |  | 
Cn1cc(S(=O)(=O)[C@@](C)(F)C2CCN(C(=O)Nc3ccon3)CC2)c(C(F)F)n1 [Form A, (R)-4-(1-((3-(difluoromethyl)-1-methyl-1H-pyrazol-4-yl)sulfonyl)-1-fluoroethyl)-N-(isoxazol-3-yl)piperidine-1-carboxamide] | non-hygroscopic |  |  | +++ (myosin activation value AC20 < 2 μM) | + (fractional shorting activation <20% over basal) | ++ (fractional shorting activation values from 20% to 50% over basal)
